{
  "source": "patent US8518942B2",
  "about": "“Caspase inhibitors and uses thereof” (Buck Institute for Research on Aging, priority 2008, dated 2013)",
  "assay_type_in_all_cases": "biochemical",
  "key": {"caspase-6 [1]": {"molecular_target": "T1, caspase-6 (Homo sapiens, UniProt P55212)", "T1 construct": "gift: Guy Salvesen's laboratory, Burnham Institute (La Jolla, Calif.)", "T1 sequence (P55212 24-179 limits assumed)": "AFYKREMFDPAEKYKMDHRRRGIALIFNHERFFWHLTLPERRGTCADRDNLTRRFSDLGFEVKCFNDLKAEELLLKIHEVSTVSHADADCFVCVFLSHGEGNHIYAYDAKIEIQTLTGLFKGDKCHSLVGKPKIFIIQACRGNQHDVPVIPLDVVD", "T1 sequence (P55212 194-293 limits assumed)": "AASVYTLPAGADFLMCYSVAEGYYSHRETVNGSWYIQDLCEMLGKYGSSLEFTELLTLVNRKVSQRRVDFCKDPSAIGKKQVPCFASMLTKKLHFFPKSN", "assay": "Blots of full-length huntingtin (23Q & 148Q) treated with caspase-6 plus inhibitor", "conditions": "for Proteolysis of Htt at amino acid 586 (caspase-6 site): 1-100 nM; for Inhibition of caspase-6 cleavage of full-length huntingtin (blot): 23Q & 148Q, at 1.0 μM and 10 μM; for Blocking the cleavage of Htt at amino acid 586 mediated by caspase-6: conclusion"}, "caspase-9": {"molecular_target": "T2, caspase-9 (Homo sapiens, UniProt P55211)", "T2 construct": "gift: Guy Salvesen's laboratory, Burnham Institute (La Jolla, Calif.)", "T2 sequence (P55211 1-315 limits assumed)": "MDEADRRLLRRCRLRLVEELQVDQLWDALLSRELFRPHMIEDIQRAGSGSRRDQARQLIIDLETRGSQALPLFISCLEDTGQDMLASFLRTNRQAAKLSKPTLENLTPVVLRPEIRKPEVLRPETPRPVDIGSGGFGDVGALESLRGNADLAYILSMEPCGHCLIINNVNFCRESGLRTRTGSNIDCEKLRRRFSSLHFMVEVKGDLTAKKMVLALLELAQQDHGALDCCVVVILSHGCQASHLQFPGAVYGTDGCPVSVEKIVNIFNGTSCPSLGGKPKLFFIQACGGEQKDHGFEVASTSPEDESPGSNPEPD", "T2 sequence (P55211 331-416 limits assumed)": "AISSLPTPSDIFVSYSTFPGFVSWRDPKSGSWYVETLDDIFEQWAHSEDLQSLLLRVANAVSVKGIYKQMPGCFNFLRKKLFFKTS", "assay": "Irreversible inhibitor kinetic assay (progress curve), caspase-9, substrate Ac-LEHD-AFC", "conditions": "casp-9; duplicate, SD included", "text": "(§1) Caspases-3, -6, -7, -8, and -9 were provided by Guy Salvesen's laboratory at the Burnham Institute (La Jolla, Calif.). Caspase-1 was purchased from EMD Biosciences (San Diego, Calif.) and Caspase-2 was purchased from Biomol International (Plymouth Meeting, Pa.). Caspase substrates Ac-DEVD-AMC, Ac-VDVAD-AFC, and Ac-LEHD-AFC were purchased from EMD Biosciences (San Diego, Calif.) and Ac-VDVAD-AMC was purchased from Biomol International (Plymouth Meeting, Pa.). The proteolytic cleavage of N-acyl aminocoumarins by caspases was conducted in Dynatech Microfluor fluorescence 96-well microtiter plates, and readings were taken on a Molecular Devices Spectra Max Gemini XS instrument. The excitation wavelength was 370 nm and the emission wavelength was 455 nm for AMCA substrates, the excitation wavelength was 355 nm and the emission wavelength was 450 nm for peptidyl AMC substrates, and the excitation wavelength was 430 nm and the emission wavelength was 535 nm for peptidyl AFC substrates.\n(§2) The kinact/Ki for inhibitors were determined under pseudo-first order conditions using the progress curve method (Eckici et al. (2006) J. Med. Chem., 49: 5728-5749; Bieth (1995) Meth. Enzymol., 248: 59-84). Assay wells contained a mixture of inhibitor and AMC or AFC substrate in buffer. Aliquots of caspase were added to each well to initiate the assay. Hydrolysis of the AMC or AFC substrate was monitored fluorometrically for 45 min. To determine the inhibition parameters, time points for which the control ([I]=0) was linear were used. For each inhibitor, a kobs was calculated for at least four different concentrations of inhibitors via a nonlinear regression of the data according to the equation P=(vi/kobs)[1−exp(−kobst) (where product formation=P, […], and the first-order rate constant=kobs). If kobs varied linearly with [I], then the association constant kass was determined by linear regression analysis using kobs=(kass[I])/(1+[S]/Km) where [S] is the concentration of the substrate. […] Inhibition was measured in duplicate and the average of is reported. […]"}, "caspase-6 [2]": {"molecular_target": "T1, caspase-6", "assay": "Irreversible inhibitor kinetic assay (progress curve), caspase-6, substrate Ac-DEVD-AMC", "conditions": "casp-6; duplicate, SD included", "text": "as §1, §2"}},
  "data": [
    {"smiles": "C[C@@](NS(=O)(=O)Cc1ccccc1)(c1cn([C@@H](CC(=O)O)C(=O)COc2c(F)c(F)cc(F)c2F)nn1)C1CCCCC1", "note": "[MJL-001i]", "values": [
      {"measurement": "Proteolysis of Htt at amino acid 586 (caspase-6 site)", "setting": "caspase-6 [1]", "value": "blocked"},
      {"measurement": "Inhibition of caspase-6 cleavage of full-length huntingtin (blot)", "setting": "caspase-6 [1]", "value": "inhibition"},
      {"measurement": "Blocking the cleavage of Htt at amino acid 586 mediated by caspase-6", "setting": "caspase-6 [1]", "value": "affective at blocking"},
      {"measurement": "kinact/Ki", "setting": "caspase-9", "value": "18,250 ± 4,050 s^−1/M^−1"},
      {"measurement": "kinact/Ki", "setting": "caspase-6 [2]", "value": "23,100 ± 1,900 s^−1/M^−1"}
    ]},
    {"smiles": "C[C@@](NC(=O)CCCC(=O)O)(c1cn([C@@H](CC(=O)O)C(=O)COc2c(F)c(F)cc(F)c2F)nn1)C1CCCCC1", "note": "[MJL-002i]", "values": [
      {"measurement": "Proteolysis of Htt at amino acid 586 (caspase-6 site)", "setting": "caspase-6 [1]", "value": "blocked"},
      {"measurement": "Inhibition of caspase-6 cleavage of full-length huntingtin (blot)", "setting": "caspase-6 [1]", "value": "inhibition"},
      {"measurement": "Blocking the cleavage of Htt at amino acid 586 mediated by caspase-6", "setting": "caspase-6 [1]", "value": "affective at blocking"},
      {"measurement": "kinact/Ki", "setting": "caspase-9", "value": "7,550 ± 1,650 s^−1/M^−1"},
      {"measurement": "kinact/Ki", "setting": "caspase-6 [2]", "value": "32,950 ± 1,650 s^−1/M^−1"}
    ]},
    {"smiles": "C[C@@](NC(=O)Cc1ccccc1)(c1cn([C@@H](CC(=O)O)C(=O)COc2c(F)c(F)cc(F)c2F)nn1)C1CCCCC1", "note": "[MJL-003i]", "values": [
      {"measurement": "Proteolysis of Htt at amino acid 586 (caspase-6 site)", "setting": "caspase-6 [1]", "value": "blocked"},
      {"measurement": "Inhibition of caspase-6 cleavage of full-length huntingtin (blot)", "setting": "caspase-6 [1]", "value": "inhibition"},
      {"measurement": "Blocking the cleavage of Htt at amino acid 586 mediated by caspase-6", "setting": "caspase-6 [1]", "value": "affective at blocking"},
      {"measurement": "kinact/Ki", "setting": "caspase-9", "value": "28,100 ± 2,500 s^−1/M^−1"},
      {"measurement": "kinact/Ki", "setting": "caspase-6 [2]", "value": "45,750 ± 450 s^−1/M^−1"}
    ]}
  ]
}
